± gives the uncertainty stated by the source.
Tests used:
Details in all cases: 18 h
[1] = test system: HEK293T-Rex ERSE-FLuc; assay: maximal ERSE-FLuc activation from dose-response fit, relative to thapsigargin (% of thapsigargin); higher = stronger activation
Experimental: (§1)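 Dose-response of hit compounds in HEK293T-Rex cells stably expressing ERSE-FLuc or XBP1-RLuc reporters, 18 hr treatment, 1536-well; luminescence normalised to 500 nM thapsigargin (100%) and DMSO (0%), fitted to give EC50 (M) and maximal activation; '>' marks EC50 above the top tested dose (~17 µM).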

[2] = test system: HEK293T-Rex XBP1-RLuc; assay: maximal XBP1-RLuc activation from dose-response fit, relative to thapsigargin (% of thapsigargin); higher = stronger activation
Experimental: as §1

[3] = test system: HEK293T-Rex ERSE-FLuc; assay: EC50 for ERSE-FLuc reporter activation
Experimental: as §1

[4] = test system: HEK293T-Rex XBP1-RLuc; assay: EC50 for XBP1-RLuc reporter activation
Experimental: as §1

| SMILES | maximal ERSE-FLuc activation [1] | maximal XBP1-RLuc activation [2] | EC50 for ERSE-FLuc reporter activation [3] | EC50 for XBP1-RLuc reporter activation [4] |
| --- | --- | --- | --- | --- |
| COc1ccc(NC(=O)/C(Cl)=C\c2ccccc2)cc1 | 22.2 ± 2.3 | 4.41 ± 5 | > 16.9 µM | > 16.9 µM |
| NC(=O)c1c(NC(=O)/C=C/c2ccccc2)sc2c1CCCCC2 | 22.6 ± 3.1 | 3.01 ± 2.8 | > 16.9 µM | > 16.9 µM |
| CC(C)CNC(=O)c1cc(-c2ccc(F)cc2)no1 | 20.8 ± 5.8 | 4.76 ± 1.8 | > 16.9 µM | > 16.9 µM |
| Cc1ccc(O)c(NC(=O)c2cc(-c3ccco3)on2)c1 | 167.3 ± 1.6 | 34.4 ± 4.2 | 4.85 µM | > 16.9 µM |
| CCCCNC(=O)c1cc(-c2cccs2)on1 | 107 ± 7.8 | 10.3 ± 2.2 | 6.65 µM | > 16.9 µM |
| Cc1ccc(NC(=S)NC(=O)C(=O)Nc2ccccc2)cc1 | 6.38 ± 2.8 | 2.05 ± 0.91 | > 16.9 µM | > 16.9 µM |
| O=C1/C(=C/c2ccc(O)c(O)c2)Oc2cc(O)ccc21 | 46.2 ± 4.5 | 24.1 ± 2.3 | > 16.9 µM | > 16.9 µM |
| CC(C)CC(c1nnnn1C1CCCC1)N1CCN(C(=O)c2ccco2)CC1 (stereo unspecified) | 14.3 ± 1.5 | 8.89 ± 0.66 | > 16.9 µM | > 16.9 µM |
| Cc1ccc(C(=O)Nc2sc3c(c2C#N)CCC3)cc1 | 17.6 ± 5 | 2.39 ± 0.61 | > 16.7 µM | > 16.7 µM |
| CN(C)c1ccc(-c2nc3ccc(N)cc3[nH]2)cc1 | 42.7 ± 3.8 | 32 ± 6 | > 15.6 µM | > 15.6 µM |
| Oc1ccc(/C=N/Nc2cccc(Cl)n2)c(O)c1 | 24.4 ± 4.8 | 33.6 ± 1.8 | > 16.9 µM | > 16.9 µM |
| CC(=O)Oc1cc(N2CCOCC2)c(OC(C)=O)c2c1C(=O)c1ccccc1C2=O | 9.5 ± 2.7 | 3.44 ± 3.3 | > 16.9 µM | > 16.9 µM |
| OCCNc1nc(Nc2ccc(Br)cc2)nc2ccccc12 | 132 ± 7.4 | 57 ± 8.1 | 4.93 µM | 7.94 µM |
| CC(=O)Oc1ccc(C(=O)OCc2ccc(Cl)cc2)cc1OC(C)=O | 40.4 ± 4.3 | 24.7 ± 3.7 | > 18.6 µM | > 18.6 µM |
| O=C1c2cc(O)ccc2-c2ccc(O)cc21 | 65.1 ± 18 | 73.2 ± 6.5 | 8.44 µM | 8.87 µM |
| COc1c(O)cc2oc(-c3ccc(O)c(O)c3)cc(=O)c2c1O | 129 ± 3.5 | 57.9 ± 2.8 | 3.69 µM | 8.02 µM |
| Nc1ccc2nc(-c3ccc(Cl)cc3)[nH]c2c1 | 68.5 ± 6.7 | 35.3 ± 12 | > 5.63 µM | > 16.9 µM |
| Oc1ccc(-c2csc(-c3cccnc3)n2)cc1O | 71.5 ± 11 | 80.1 ± 5.1 | 7.5 µM | 12.8 µM |
| CNC(=O)c1ccccc1Nc1cc(NC(=O)Cc2ccc(F)c(F)c2)ncc1C(F)(F)F | 3.28 ± 7.2 | 2.4 ± 1.1 | > 16.9 µM | > 16.9 µM |
| COc1cccc(Nc2nc(-c3ccc(OC)c(F)c3)cs2)c1 | 19.7 ± 3.5 | 3.68 ± 1.6 | > 16.9 µM | > 16.9 µM |
| COc1ccc(-c2cnnc(N/N=C/c3ccc(O)c(O)c3)n2)cc1 | 54.5 ± 13 | 50.5 ± 3.9 | 14.7 µM | 16.8 µM |
| O=C(Nc1ccccc1O)c1cc2ccccc2o1 | 40.6 ± 8.2 | 20.1 ± 3.2 | > 21 µM | > 21 µM |

| SMILES | maximal ERSE-FLuc activation [1] | maximal XBP1-RLuc activation [2] | EC50 for ERSE-FLuc reporter activation [3] | EC50 for XBP1-RLuc reporter activation [4] |
| --- | --- | --- | --- | --- |
| O=c1cc(-c2ccc(O)c(O)c2)oc2ccccc12 | 32.7 ± 5 | 43.9 ± 0.95 | > 17.1 µM | > 17.1 µM |
| COc1cccc(/C=N/NC(=O)c2ccc(NC(=O)c3ccc(C)cc3)cc2)c1O | 6.5 ± 1.7 | 1.01 ± 1.2 | > 16.9 µM | > 16.9 µM |
| COc1cn(-c2ccc(F)cc2)nc1C(=O)Nc1ccccc1SC | 80.8 ± 17 | 40.2 ± 0.22 | 6.64 µM | > 16.9 µM |
| O=C(N/N=C/c1cccc(O)c1O)c1ccccn1 | 25.7 ± 1.9 | 20.3 ± 1.1 | > 18.4 µM | > 18.4 µM |
| COc1ccc(/C=C2\SC(=O)NC2=Nc2ccc(C)cc2)c(OC)c1 | 18.2 ± 3.2 | 3.27 ± 1.6 | > 13 µM | > 13 µM |
| CCCNC(=O)c1cc(-c2ccc(F)cc2)on1 | 65.8 ± 6.4 | 11.7 ± 3.2 | 12 µM | > 16.9 µM |
| Nc1cn(-c2ccccc2)nc1-c1cccs1 | 47.7 ± 4.1 | 156 ± 4.4 | > 19.6 µM | 3.71 µM |
| Oc1ccc(/C=N/Nc2cccc3cccnc23)cc1O | 30.7 ± 5.1 | 35 ± 3.2 | > 16.9 µM | > 16.9 µM |
| CCCCCC(=O)Nc1ccc(C(=O)Nc2ccccc2O)cc1 | 112 ± 10 | 21.2 ± 1.6 | 8.09 µM | > 15.6 µM |
| COc1cccc(/C=N/NC(=O)c2n[nH]c3c2CCCC3)c1 | 29.6 ± 6.7 | 3.95 ± 0.69 | > 16.9 µM | > 16.9 µM |
| Cn1c(-c2cccc(Cl)c2)cnc1NC(=O)c1ccccc1 | 23.6 ± 2.5 | 8.33 ± 5.9 | > 16.9 µM | > 16.9 µM |
| COc1ccc(/C=N/NC(=O)c2cccc(F)c2)cc1Br | 31 ± 5.5 | 1.14 ± 6.2 | > 16.9 µM | > 16.9 µM |
| CC(=O)N1CCc2c([nH]c3ccccc23)C12CCN(CCCOc1ccccc1)CC2 | 151 ± 7.6 | 176 ± 21 | 2.94 µM | 2.11 µM |
| Cc1ccc(O)c(-c2cc(-c3ccc(F)cc3)n[nH]2)c1 | 71.4 ± 16 | 17.2 ± 4 | 10.5 µM | > 19 µM |
| c1ccc2cc(-c3cnnc(N4CCOCC4)n3)ccc2c1 | 25.2 ± 10 | 4.15 ± 2.7 | > 16.9 µM | > 16.9 µM |
| Cc1cccc2c1[nH]c1nc(N/N=C\c3c[nH]c4ccccc34)nnc12 | 41.7 ± 12 | 32.4 ± 5.6 | > 16.9 µM | > 16.9 µM |
| Nc1ccc2nc(-c3ccc(Br)cc3)[nH]c2c1 | 74.6 ± 19 | 51.4 ± 4.2 | 12.5 µM | 17.3 µM |
| CCCNC(=O)c1ccc2nc(-c3ccc4[nH]ccc4c3)sc2c1 | 13.9 ± 6.1 | 2.49 ± 1.2 | > 17.4 µM | > 17.4 µM |
| O=C(NCCc1ccc(O)cc1)c1ccc2nc(-c3csc4ccccc34)sc2c1 | 99.4 ± 20 | 105 ± 13 | 11.6 µM | 13.3 µM |
| O=[N+]([O-])c1ccccc1N/N=C/c1ccc(O)c(O)c1 | 38 ± 11 | 43.4 ± 3.5 | > 16.9 µM | > 16.9 µM |
| Cc1ccc(/C=N/NC(=O)c2cccc(Cl)c2)cc1 | 36.9 ± 7.8 | 3.19 ± 1.2 | > 16.9 µM | > 16.9 µM |
| C=CCNC(=O)c1cc(-c2ccc(F)cc2)on1 | 50.2 ± 7.4 | 6.35 ± 5.3 | 16.7 µM | > 16.9 µM |
